In patent EP3046573B1, “AMYLIN ANALOGUES” (Zealand Pharma A/S, priority 2013, dated 2015):
Like-named read-outs stand apart in the source and are kept apart here. Numbered stars: 1 amine (or outer) side, 2 acyl side, 3 side chain; on linkers, the order of the positions; unused ones are H or OH. Bridge positions count the residues as written; N and C are the ends. Square brackets hold non-standard residues; d marks the D form. Peptide text beside a SMILES is read from it. * marks the point of attachment. C20 diacid = O=C(O)CCCCCCCCCCCCCCCCCCC(=O)*; γGlu = O=C(O)[C@H](CCC(=O)[*:2])N[*:1]; Hyp = O=C(O)[C@@H]1C[C@@H](O)CN1; NMeI = CC[C@H](C)[C@H](NC)C(=O)O; Sar = CNCC(=O)O

Tests used:
[1] = biological target: T1, human calcitonin receptor (hCTR2) (Homo sapiens, UniProt P30988); assay: hCTR2 assay: induction of cAMP (AlphaScreen cAMP Assay kit) in COS7 cells expressing hCTR2; format: cell-based
T1 construct: expressed in transfected cells
T1 sequence (P30988 25-474): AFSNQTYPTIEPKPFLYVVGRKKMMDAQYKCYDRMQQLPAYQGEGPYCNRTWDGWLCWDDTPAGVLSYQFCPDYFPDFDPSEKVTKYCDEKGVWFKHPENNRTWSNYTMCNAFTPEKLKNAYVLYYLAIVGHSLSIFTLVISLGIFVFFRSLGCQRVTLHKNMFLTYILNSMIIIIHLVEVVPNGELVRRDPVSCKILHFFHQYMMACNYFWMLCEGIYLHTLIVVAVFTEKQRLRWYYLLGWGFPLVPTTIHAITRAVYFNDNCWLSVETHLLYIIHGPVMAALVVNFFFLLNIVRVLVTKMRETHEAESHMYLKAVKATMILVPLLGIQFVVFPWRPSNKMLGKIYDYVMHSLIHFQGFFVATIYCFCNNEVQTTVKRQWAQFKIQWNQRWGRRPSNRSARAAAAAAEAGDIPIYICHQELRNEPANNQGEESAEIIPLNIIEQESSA
Procedure, shortened: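 Peptide-induced cAMP in hCTR2-expressing COS7 cells, 15 min at 37° C with phosphodiesterase inhibitor IBMX (100 µM), detected by AlphaScreen; potency from 4PL curves.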

[2] = biological target: T2, human amylin receptor 3 (hAMYR3) consisting of hCTR2 co-expressed with human Receptor Activity Modifying Protein 3 (hRAMP3) (Homo sapiens, UniProt O60896+P30988); assay: hAMYR3 assay: induction of cAMP (AlphaScreen cAMP Assay kit) in COS7 cells expressing hAMYR3; format: cell-based
T2 construct: expressed in transfected cells
T2 sequence (P30988 25-474): T1 sequence (P30988 25-474)
T2 sequence (O60896 24-148 partner): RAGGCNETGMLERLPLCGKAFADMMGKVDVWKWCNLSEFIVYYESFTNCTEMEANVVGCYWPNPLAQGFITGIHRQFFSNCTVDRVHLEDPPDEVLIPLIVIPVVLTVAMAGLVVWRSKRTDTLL
Procedure, shortened: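 cAMP accumulation read by AlphaScreen in lysates of RAMP-naive COS7 cells stably transfected with hCTR2 plus hRAMP3. Cells exposed to peptide dilutions for 15 min, 37° C, with 100 µM IBMX; 4PL fitting gave EC50 and efficacy relative to pramlintide.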

[3] = Assessment of physical stability: fibril formation detected with Thioflavin T (ThT), lag-time; format: physicochemical; settings: 1 mg/ml peptide, 40 µM ThT, FND = Fibrillation not detected; for Fibrillation lag time (hours) pH 4.0 (Ac): 50 mM acetate buffer pH 4.0, 96 hours at 40°C; for Fibrillation lag time (hours) pH 7.0 (His): 50 mM histidine buffer pH 7.0, 96 hours at 40°C; for Fibrillation lag time (hours) pH 7.0 (Ph): 50 mM phosphate buffer pH 7.0, 96 hours at 40°C
Procedure, shortened: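 Test peptide at 1 mg/ml with 40 µM ThT in 50 mM phosphate (pH 7.0), 50 mM histidine (pH 7.0) or 50 mM acetate (pH 4.0), in triplicate, 40° C. for 96 h. Fluorescence read every 10 min after 300 s agitation. Lag-time (h) taken as intersection of linear fits to initial stable and growth phases.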

[4] = cAMP induction in COS7 cells expressing hCTR2, average of a minimum of 3 determinations, read-out: hCTR2 EC50
[5] = cAMP induction in COS7 cells expressing hAMYR3, average of a minimum of 3 determinations, read-out: hAMY R3 EC50

## CC[C@H](C)[C@@H](C(=O)N[C@@H](CC(C)C)C(=O)N[C@@H](CO)C(=O)N[C@@H](CO)C(=O)N[C@H](C(=O)N[C@@H](CCC(=O)O)C(=O)N[C@H](C(=O)NCC(=O)N[C@@H](CO)C(=O)N[C@@H](CCC(=O)O)C(=O)N[C@H](C(=O)N1CCC[C@H]1C(N)=O)[C@@H](C)O)C(C)C)[C@@H](C)O)N(C)C(=O)[C@H](C)NC(=O)CN(C)C(=O)[C@H](Cc1ccccc1)NC(=O)[C@H](CO)NC(=O)[C@H](CO)NC(=O)[C@H](CO)NC(=O)[C@H](CO)NC(=O)[C@H](CCCNC(=N)N)NC(=O)[C@H](Cc1c[nH]cn1)NC(=O)[C@H](CC(C)C)NC(=O)[C@H](Cc1ccccc1)NC(=O)[C@H](CCC(=O)O)NC(=O)[C@H](C)NC(=O)[C@H](CC(C)C)NC(=O)[C@H](CCCNC(=N)N)NC(=O)[C@H](CCC(=O)O)NC(=O)[C@@H](NC(=O)[C@H](C)NC(=O)[C@@H]1CSSC[C@H](NC(=O)[C@H](CCCNC(=N)N)NC(=O)CC[C@H](NC(=O)CCCCCCCCCCCCCCCCCCC(=O)O)C(=O)O)C(=O)N[C@@H](CCC(=O)O)C(=O)N[C@@H]([C@@H](C)O)C(=O)N[C@@H](C)C(=O)N[C@@H]([C@@H](C)O)C(=O)N1)[C@@H](C)O [Compound 134, [19CD]-isoGlu-RC()ETATC()ATERLAEFLHRSSSSF-Gly(Me)-A-Ile(Me)-LSSTEVGSETP-NH2] ({C20 diacid-γGlu}-RCETATCATERLAEFLHRSSSSF[Sar]A[NMeI]LSSTEVGSETP-NH2; disulfide 2-7)
[1]; [4]
  EC50: 0.22 nM
[2]; [5]
  EC50: 0.65 nM
[3]
  Fibrillation lag time (hours) pH 4.0 (Ac): FND
  Fibrillation lag time (hours) pH 7.0 (His): FND
  Fibrillation lag time (hours) pH 7.0 (Ph): FND

## CC[C@H](C)[C@@H](C(=O)N[C@@H](CC(C)C)C(=O)N[C@@H](CO)C(=O)N[C@@H](CO)C(=O)N[C@H](C(=O)N[C@@H](CCC(=O)O)C(=O)N[C@H](C(=O)NCC(=O)N[C@@H](CO)C(=O)N[C@@H](CCC(=O)O)C(=O)N[C@H](C(=O)N1CCC[C@H]1C(N)=O)[C@@H](C)O)C(C)C)[C@@H](C)O)N(C)C(=O)[C@H](C)NC(=O)CN(C)C(=O)[C@H](Cc1ccccc1)NC(=O)[C@H](CO)NC(=O)[C@H](CO)NC(=O)[C@H](CCCNC(=N)N)NC(=O)[C@H](Cc1c[nH]cn1)NC(=O)[C@H](CC(C)C)NC(=O)[C@H](Cc1ccccc1)NC(=O)[C@H](CCC(=O)O)NC(=O)[C@H](C)NC(=O)[C@H](CC(C)C)NC(=O)[C@H](CCCNC(=N)N)NC(=O)[C@H](CCC(N)=O)NC(=O)[C@@H](NC(=O)[C@H](C)NC(=O)[C@@H]1CSSC[C@H](NC(=O)[C@H](CCCNC(=N)N)NC(=O)CC[C@H](NC(=O)CCCCCCCCCCCCCCCCCCC(=O)O)C(=O)O)C(=O)N[C@@H](CC(N)=O)C(=O)N[C@@H]([C@@H](C)O)C(=O)N[C@@H](C)C(=O)N[C@@H]([C@@H](C)O)C(=O)N1)[C@@H](C)O [Compound 82, [19CD]-isoGlu-RC()NTATC()ATQRLAEFLHRSSF-Gly(Me)-A-Ile(Me)-LSSTEVGSETP-NH2] ({C20 diacid-γGlu}-RCNTATCATQRLAEFLHRSSF[Sar]A[NMeI]LSSTEVGSETP-NH2; disulfide 2-7)
[1]; [4]
  EC50: 0.07 nM
[2]; [5]
  EC50: 0.12 nM
[3]
  Fibrillation lag time (hours) pH 4.0 (Ac): FND
  Fibrillation lag time (hours) pH 7.0 (His): FND
  Fibrillation lag time (hours) pH 7.0 (Ph): FND

## CC[C@H](C)[C@@H](C(=O)N[C@@H](CC(C)C)C(=O)N[C@@H](CO)C(=O)N[C@@H](CO)C(=O)N[C@H](C(=O)N[C@@H](CCC(=O)O)C(=O)N[C@H](C(=O)NCC(=O)N[C@@H](CO)C(=O)N[C@@H](CCC(=O)O)C(=O)N[C@H](C(=O)N1CCC[C@H]1C(N)=O)[C@@H](C)O)C(C)C)[C@@H](C)O)N(C)C(=O)[C@H](C)NC(=O)CN(C)C(=O)[C@H](Cc1ccccc1)NC(=O)[C@H](CO)NC(=O)[C@H](CO)NC(=O)[C@H](CO)NC(=O)[C@H](CO)NC(=O)[C@H](CCCNC(=N)N)NC(=O)[C@H](Cc1c[nH]cn1)NC(=O)[C@H](CC(C)C)NC(=O)[C@H](Cc1ccccc1)NC(=O)[C@H](CCC(=O)O)NC(=O)[C@H](C)NC(=O)[C@H](CC(C)C)NC(=O)[C@H](CCCNC(=N)N)NC(=O)[C@H](C)NC(=O)[C@@H](NC(=O)[C@H](C)NC(=O)[C@@H]1CSSC[C@H](NC(=O)[C@H](CCCNC(=N)N)NC(=O)CC[C@H](NC(=O)CCCCCCCCCCCCCCCCCCC(=O)O)C(=O)O)C(=O)N[C@@H](CC(N)=O)C(=O)N[C@@H]([C@@H](C)O)C(=O)N[C@@H](C)C(=O)N[C@@H]([C@@H](C)O)C(=O)N1)[C@@H](C)O [Compound 118, [19CD]-isoGlu-RC()NTATC()ATARLAEFLHRSSSSF-Gly(Me)-A-Ile(Me)-LSSTEVGSETP-NH2] ({C20 diacid-γGlu}-RCNTATCATARLAEFLHRSSSSF[Sar]A[NMeI]LSSTEVGSETP-NH2; disulfide 2-7)
[1]; [4]
  EC50: 0.062 nM
[2]; [5]
  EC50: 0.12 nM
[3]
  Fibrillation lag time (hours) pH 4.0 (Ac): FND
  Fibrillation lag time (hours) pH 7.0 (His): FND
  Fibrillation lag time (hours) pH 7.0 (Ph): FND

## CC[C@H](C)[C@@H](C(=O)N[C@@H](CC(C)C)C(=O)N[C@@H](CO)C(=O)N[C@@H](CO)C(=O)N[C@H](C(=O)N[C@@H](CC(N)=O)C(=O)N[C@H](C(=O)NCC(=O)N[C@@H](CO)C(=O)N[C@@H](CC(N)=O)C(=O)N[C@H](C(=O)N1C[C@H](O)C[C@H]1C(N)=O)[C@@H](C)O)C(C)C)[C@@H](C)O)N(C)C(=O)[C@H](C)NC(=O)CN(C)C(=O)[C@H](Cc1ccccc1)NC(=O)[C@H](CC(N)=O)NC(=O)[C@H](CC(N)=O)NC(=O)[C@H](CO)NC(=O)[C@H](CO)NC(=O)[C@H](CCCNC(=N)N)NC(=O)[C@H](Cc1c[nH]cn1)NC(=O)[C@H](CC(C)C)NC(=O)[C@H](Cc1ccccc1)NC(=O)[C@H](CCC(=O)O)NC(=O)[C@H](C)NC(=O)[C@H](CC(C)C)NC(=O)[C@H](CCCNC(=N)N)NC(=O)[C@H](CCC(N)=O)NC(=O)[C@@H](NC(=O)[C@H](C)NC(=O)[C@@H]1CSSC[C@H](NC(=O)[C@H](CCCNC(=N)N)NC(=O)CC[C@H](NC(=O)CCCCCCCCCCCCCCCCCCC(=O)O)C(=O)O)C(=O)N[C@@H](CC(N)=O)C(=O)N[C@@H]([C@@H](C)O)C(=O)N[C@@H](C)C(=O)N[C@@H]([C@@H](C)O)C(=O)N1)[C@@H](C)O [Compound 105, [19CD]-isoGlu-RC()NTATC()ATQRLAEFLHRSSNNF-Gly(Me)-A-Ile(Me)-LSSTNVGSNT-Hyp-NH2] ({C20 diacid-γGlu}-RCNTATCATQRLAEFLHRSSNNF[Sar]A[NMeI]LSSTNVGSNT[Hyp]-NH2; disulfide 2-7)
[1]
  EC50: 0.083 nM
[2]
  EC50: 0.092 nM
[3]
  Fibrillation lag time (hours) pH 4.0 (Ac): FND
  Fibrillation lag time (hours) pH 7.0 (His): FND
  Fibrillation lag time (hours) pH 7.0 (Ph): FND

## CC[C@H](C)[C@@H](C(=O)N[C@@H](CC(C)C)C(=O)N[C@@H](CO)C(=O)N[C@@H](CO)C(=O)N[C@H](C(=O)N[C@@H](CC(=O)O)C(=O)N[C@H](C(=O)NCC(=O)N[C@@H](CO)C(=O)N[C@@H](CC(=O)O)C(=O)N[C@H](C(=O)N1CCC[C@H]1C(N)=O)[C@@H](C)O)C(C)C)[C@@H](C)O)N(C)C(=O)[C@H](C)NC(=O)CN(C)C(=O)[C@H](Cc1ccccc1)NC(=O)[C@H](CO)NC(=O)[C@H](CO)NC(=O)[C@H](CCCNC(=N)N)NC(=O)[C@H](Cc1c[nH]cn1)NC(=O)[C@H](CC(C)C)NC(=O)[C@H](Cc1ccccc1)NC(=O)[C@H](CCC(=O)O)NC(=O)[C@H](C)NC(=O)[C@H](CC(C)C)NC(=O)[C@H](CCCNC(=N)N)NC(=O)[C@H](CC(=O)O)NC(=O)[C@@H](NC(=O)[C@H](C)NC(=O)[C@@H]1CSSC[C@H](NC(=O)[C@H](CCCNC(=N)N)NC(=O)CC[C@H](NC(=O)CCCCCCCCCCCCCCCCCCC(=O)O)C(=O)O)C(=O)N2CCC[C@H]2C(=O)N[C@@H]([C@@H](C)O)C(=O)N[C@@H](C)C(=O)N[C@@H]([C@@H](C)O)C(=O)N1)[C@@H](C)O [Compound 172, [19CD]-isoGlu-RC()PTATC()ATDRLAEFLHRSSF-Gly(Me)-A-Ile(Me)-LSSTDVGSDTP-NH2] ({C20 diacid-γGlu}-RCPTATCATDRLAEFLHRSSF[Sar]A[NMeI]LSSTDVGSDTP-NH2; disulfide 2-7)
[1]; [4]
  EC50: 0.045 nM
[2]; [5]
  EC50: 0.095 nM
[3]
  Fibrillation lag time (hours) pH 4.0 (Ac): FND
  Fibrillation lag time (hours) pH 7.0 (His): FND
  Fibrillation lag time (hours) pH 7.0 (Ph): FND
